# Values of other authors, collected in paper PMC12505607 (BMC Medicine, 2025).
# Like-named read-outs stand apart in the source and are kept apart here.
Compound,OCT2 inhibition (OCT2),MATE1 inhibition (MATE1),MATE2-K inhibition (MATE2-K),recommended dose for combination with endocrine therapy (patients; in vivo) [mg BID],patients with grade 3 fatigue as DLTs (patients; phase 1 dose-escalation study) [patients],incidence of grades 3–4 neutropenia (patients; phase 1 study) [%],incidence of grades 3–4 neutropenia (patients; in vivo) [%]
CCN1CCN(Cc2ccc(Nc3ncc(F)c(-c4cc(F)c5nc(C)n(C(C)C)c5c4)n3)nc2)CC1 [abemaciclib],inhibition,inhibition,inhibition,150,4,32.0,
CC(=O)c1c(C)c2cnc(Nc3ccc(N4CCNCC4)cn3)nc2n(C2CCCC2)c1=O [palbociclib],,,,,,,33.0
CN(C)C(=O)c1cc2cnc(Nc3ccc(N4CCNCC4)cn3)nc2n1C1CCCC1 [ribociclib],,,,,,27.0,
